Experimental findings from patent US20240150366A1, “4-AMINOQUINAZOLINE COMPOUND” (Astellas Pharma Inc., priority 2021, published 2024) are described below.

The subject of assay [1] is ERK phosphorylation (Thr202/Tyr204) in KRAS G12D mutant-positive pancreatic cancer line AsPC-1. The assay is described as follows: ERK phosphorylation inhibitory activity in AsPC-1 (cell ELISA). The assay is classed as cell-based. To be noted: Homo sapiens, ASPC1, 2 h, read-out: IC50, ERK phosphorylation inhibition. The method, then:
The ERK phosphorylation inhibitory activities of subject compounds were evaluated by measuring phosphorylation of the 202th threonine (Thr202) and the 204th tyrosine (Tyr204) of ERK located downstream of the KRAS signal by cell ELISA.
AsPC-1 cells (ATCC, CRL-1682) were seeded at 36 μL/well on a 384-well plate (from Greiner bio-one) to give 2.0×10^4 cells per well. As for the cell culture conditions, RPMI-1640 medium (from Sigma-Aldrich) containing 10% fetal bovine serum (from GE Life Sciences) was used in the presence of 5% CO2 at 37° C.
The next day, the subject compounds (6 points having final concentrations in the range of 10 μM to 0.3 nM), trametinib (MEK inhibitor) of a final concentration of 1 μM as a positive control and DMSO, which was the solvent for the subject compounds, as a negative control were diluted 100-fold with a fresh medium and were each added at 4 μL per well, followed by culturing for 2 hours. After culturing, a 30% glyoxal solution (40% glyoxal [from Wako] was diluted with Phosphate Buffered Saline [PBS; from Wako) was quickly added at 30 μL per well, and the plate was allowed to stand for an hour at room temperature to thus immobilize the cells. Then, the plate was centrifuged (110× g, seven seconds, hereinafter centrifugation was performed under the same conditions unless otherwise specified) to remove the supernatant, and 0.1% Triton X-100 (from Amersham Biosciences)—containing PBS was added at 20 μL per well. After allowing the plate to stand for 10 minutes at room temperature, the supernatant was removed by centrifugation, and the same operation was further repeated. Next, 0.5% sodium dodecyl sulfate (SDS; from Invitrogen)-containing PBS was added at 20 μL per well. The plate was allowed to stand at room temperature for 30 minutes and was then centrifuged to remove the supernatant. Subsequently, a blocking solution (Intercept Blocking Buffer; from LI-COR Biosciences) was added at 20 μL per well, and the plate was allowed to stand for an hour at room temperature. The supernatant was removed by centrifugation, and an ERK (Thr202/Tyr204) phosphorylation antibody (Phospho-p44/42 MAPK (Erk 1/2) (Thr202/Tyr204) (D13.14.4E) XP Rabbit mAb; from Cell Signaling Technology) diluted 2,500-fold with the blocking solution was added at 10 μL per well as a primary antibody. The plate was allowed to stand at 4° C. overnight.
The next day, the plate was centrifuged to remove the supernatant, and 0.05% Tween-20-containing PBS (from Thermo Scientific; 20× PBS Tween-20 was diluted 20-fold with ion exchange water and used) was added at 20 μL per well. The supernatant was removed by centrifugation to thus wash each well. The washing was performed three times in total. After washing, an IRDye 800CW Goat anti-Rabbit IgG (from LI-COR Biosciences) diluted 1,000-fold with the blocking solution was added at 10 μL per well as a secondary antibody, and the plate was allowed to stand for an hour at room temperature. The plate was centrifuged to remove the supernatant, and each well was washed three times with 0.05% Tween-20-containing PBS in the same manner as after the primary antibody reaction. Centrifugation after the third washing was performed at 171×g for 17 seconds. After removing the supernatant, the plate was dried as it was with air at room temperature for three hours or more, and the 800-nm fluorescent signals were measured with Aerius (from LI-COR Biosciences).
With the signaling value at the time of addition of DMSO taken as 0% inhibition and with the signaling value at the time of addition of […] trametinib taken as 100% inhibition, the 50% inhibition values (IC50) were calculated by Sigmoid-Emax model nonlinear regression analysis.
A general note: In an ELISA, binding on a coated surface is turned into a signal by an enzyme label.

The test system of assay [2] is KRAS G12D mutant-positive pancreatic cancer line AsPC-1. The assay is described as follows: Non-anchorage-dependent cell growth inhibitory activity in AsPC-1 (spheroid 3D culture). To be noted: Homo sapiens, ASPC1, 144 h, read-out: IC50, non-anchorage-dependent cell growth inhibition. The format is cell-based. As to the method: The non-anchorage-dependent cell growth inhibitory activities of subject compounds were evaluated by spheroid 3D cell culture.
AsPC-1 cells were seeded at 36 μL/well on a low-cell-adhesive round bottom 384-well plate (Prime Surface: from Sumitomo Bakelite) to give 5×10^2 cells per well. The cell culture was performed under the same conditions as in the Test Example 2.
The next day, the subject compounds (6 points having final concentrations in the range of 10 μM to 3.0 nM) and DMSO, which was the solvent for the subject compounds, as a negative control were diluted 100-fold with a fresh medium and were each added at 4 μL per well. After culturing in the presence of 5% CO2 at 37° C. for six days, CellTiter Glo 2.0 (from Promega) was added at 20 μL per well. After stirring with a plate mixer (from FINEPCR) at normal temperature for an hour, the luminescent signals were measured with ARVO X3 (from PerkinElmer).
With the signaling value in treatment with DMSO taken as 0% inhibition and with the signaling value in the medium alone without cells taken as 100% inhibition, the 50% inhibition values (IC50) were calculated by Sigmoid-Emax model nonlinear regression analysis.

Assay [3] concerns the target KRAS G12D/SOS/c-Raf complex (Homo sapiens (Human), UniProt P01116, G12D). The assay is described as follows: KRAS G12D/SOS/c-Raf complex formation inhibitory activity (TR-FRET). The format is biochemical. To be noted: human recombinant proteins, 1 hour at room temperature, read-out: IC50, KRAS G12D/SOS/c-Raf complex formation inhibition. As to the method: Using human recombinant KRAS G12D, SOS and c-Raf proteins, the inhibitory activity of subject compounds on the complex formation of the proteins was examined by a time-resolved fluorescence resonance energy transfer (TR-FRET) method.
Biotinylated AviTag-KRAS G12D (amino acid region of 1-185, GDP) (2.5 μL; 400 nM) and subject compounds dissolved in an assay buffer (50 mM HEPES, 150 mM NaCl, 5 mM MgCl2, 0.05% Tween 20, pH 7.0) were added to a 384-well plate (from Corning) in a liquid volume of 2.5 μL at 40,000 nM to 40 nM. Son of Sevenless (SOS) (amino acid region of 564-1049, 2.5 μL; 1.3 μM) and c-Raf (amino acid region of 51-131) GST (2.5 μL; 130 nM) containing GTP (from Sigma-Aldrich; 2 μM) were added to the plate, and the plate was allowed to stand for 1 hour at room temperature. Then, a mixture liquid (10 μL) of LANCE Ulight-anti-GST (from PerkinElmer; 120 nM) and LANCE Eu-W1024 labeled Streptoavidin (from PerkinElmer; 100 ng/mL) was added, and the 620-nm and 665-nm fluorescence intensities were measured using EnVision 2104 (from PerkinElmer) under the conditions of an excitation wavelength of 337 nm. After standardizing the values with the fluorescence intensity at a reference wavelength of 620 nm, the 50% inhibitory concentrations (IC50) were calculated by Sigmoid-Emax model nonlinear regression analysis with the signaling value in treatment with the solvent taken as 0% inhibition and with the signaling value without the addition of GTP taken as 100% inhibition.
(Time-resolved FRET reads energy transfer from a long-lived donor to a nearby acceptor.)

Chain of KRAS G12D/SOS/c-Raf complex (P01116 other isoform, or with tags, fused parts or gaps G12D): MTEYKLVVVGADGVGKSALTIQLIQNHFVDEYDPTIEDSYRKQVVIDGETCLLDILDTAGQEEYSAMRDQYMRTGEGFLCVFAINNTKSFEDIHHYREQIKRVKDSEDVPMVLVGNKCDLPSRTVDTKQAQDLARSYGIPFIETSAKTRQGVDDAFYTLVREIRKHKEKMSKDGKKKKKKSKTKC

As to `Cc1c(F)cc2[nH]ncc2c1-c1c(C2CC2)cc2c(N3C[C@@H]4C[C@H]3CN4)nc(OC3CCOCC3)nc2c1OCc1ccc(Cc2ncn(C3CC3)n2)cc1` [Example 14, 6-cyclopropyl-8-({4-[(1-cyclopropyl-1H-1,2,4-triazol-3-yl)methyl]phenyl}methoxy)-4-[(1 S,4S)-2,5-diazabicyclo[2.2.1]heptan-2-yl]-7-(6-fluoro-5-methyl-1H-indazol-4-yl)-2-[(oxan-4-yl)oxy]quinazoline], the values for the IC50 in assay [1], in assay [2] and in assay [3] were 42 nM, 154 nM and 143 nM, respectively.

Consider `Cc1c(F)cc2[nH]ncc2c1-c1c(C2CC2)cc2c(N3C[C@@H]4C[C@H]3CN4)nc(OC3CCOCC3)nc2c1OCc1ccc(Cc2nnn(C)n2)cc1` [Example 16, 6-cyclopropyl-4-[(1S,4S)-2,5-diazabicyclo[2.2.1]heptan-2-yl]-7-(6-fluoro-5-methyl-1H-indazol-4-yl)-8-({4-[(2-methyl-2H-tetrazol-5-yl)methyl]phenyl}methoxy)-2-[(oxan-4-yl)oxy]quinazoline], for which the IC50 in assay [1] amounted to 93 nM; in assay [2], 216 nM; in assay [3] it was 226 nM.
